Holding throughout (assay): Kinase selectivity, P33-radiolabeled assay
Format in all cases: biochemical
What all share (conditions): 10 μM ATP

One test concerns the target T1, ALK (Homo sapiens, UniProt Q9UM73).
T1 construct: purchased Reaction Biology Corp
In short, it runs like this:
(§1)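 Duplicate single-concentration testing used 10 μM compound. The ATP concentration was also 10 μM.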

A further test has as its target T2, EPHA8 (Homo sapiens, UniProt P29322).
T2 construct: purchased Reaction Biology Corp
T2 sequence (P29322 28-1005): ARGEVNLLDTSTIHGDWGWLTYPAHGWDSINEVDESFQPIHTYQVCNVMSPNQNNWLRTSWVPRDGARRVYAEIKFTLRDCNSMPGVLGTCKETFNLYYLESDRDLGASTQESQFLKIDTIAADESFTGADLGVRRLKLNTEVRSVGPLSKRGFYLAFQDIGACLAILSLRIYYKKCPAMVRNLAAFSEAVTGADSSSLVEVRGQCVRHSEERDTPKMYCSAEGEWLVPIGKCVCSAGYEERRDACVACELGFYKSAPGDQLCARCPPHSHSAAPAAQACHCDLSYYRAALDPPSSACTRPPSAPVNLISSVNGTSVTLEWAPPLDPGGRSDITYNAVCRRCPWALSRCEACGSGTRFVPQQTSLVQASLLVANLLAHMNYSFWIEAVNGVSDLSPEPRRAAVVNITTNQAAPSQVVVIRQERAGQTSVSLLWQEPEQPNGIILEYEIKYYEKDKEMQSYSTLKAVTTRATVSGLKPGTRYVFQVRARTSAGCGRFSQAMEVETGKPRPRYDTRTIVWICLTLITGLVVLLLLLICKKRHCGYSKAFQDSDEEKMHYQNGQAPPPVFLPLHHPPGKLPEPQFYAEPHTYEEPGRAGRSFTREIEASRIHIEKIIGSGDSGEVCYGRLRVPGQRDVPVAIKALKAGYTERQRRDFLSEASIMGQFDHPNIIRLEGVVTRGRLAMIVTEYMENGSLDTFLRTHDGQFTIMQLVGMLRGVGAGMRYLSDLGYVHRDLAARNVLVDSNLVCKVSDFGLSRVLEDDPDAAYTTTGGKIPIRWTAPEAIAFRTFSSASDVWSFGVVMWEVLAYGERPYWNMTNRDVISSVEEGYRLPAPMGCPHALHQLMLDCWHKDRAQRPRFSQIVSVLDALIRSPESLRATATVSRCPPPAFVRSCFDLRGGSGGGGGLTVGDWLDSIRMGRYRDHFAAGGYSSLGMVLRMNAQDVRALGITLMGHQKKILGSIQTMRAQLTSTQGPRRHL
The gist of the method: as §1

The target in a further test is T3, MNK1 (Homo sapiens, UniProt Q9BUB5).
T3 construct: purchased Reaction Biology Corp
The gist of the method:
as §1

For a further test, the target named is T4, PKD2/PRKD2 (Homo sapiens, UniProt Q9BZL6).
T4 construct: purchased Reaction Biology Corp
T4 sequence (Q9BZL6 1-878): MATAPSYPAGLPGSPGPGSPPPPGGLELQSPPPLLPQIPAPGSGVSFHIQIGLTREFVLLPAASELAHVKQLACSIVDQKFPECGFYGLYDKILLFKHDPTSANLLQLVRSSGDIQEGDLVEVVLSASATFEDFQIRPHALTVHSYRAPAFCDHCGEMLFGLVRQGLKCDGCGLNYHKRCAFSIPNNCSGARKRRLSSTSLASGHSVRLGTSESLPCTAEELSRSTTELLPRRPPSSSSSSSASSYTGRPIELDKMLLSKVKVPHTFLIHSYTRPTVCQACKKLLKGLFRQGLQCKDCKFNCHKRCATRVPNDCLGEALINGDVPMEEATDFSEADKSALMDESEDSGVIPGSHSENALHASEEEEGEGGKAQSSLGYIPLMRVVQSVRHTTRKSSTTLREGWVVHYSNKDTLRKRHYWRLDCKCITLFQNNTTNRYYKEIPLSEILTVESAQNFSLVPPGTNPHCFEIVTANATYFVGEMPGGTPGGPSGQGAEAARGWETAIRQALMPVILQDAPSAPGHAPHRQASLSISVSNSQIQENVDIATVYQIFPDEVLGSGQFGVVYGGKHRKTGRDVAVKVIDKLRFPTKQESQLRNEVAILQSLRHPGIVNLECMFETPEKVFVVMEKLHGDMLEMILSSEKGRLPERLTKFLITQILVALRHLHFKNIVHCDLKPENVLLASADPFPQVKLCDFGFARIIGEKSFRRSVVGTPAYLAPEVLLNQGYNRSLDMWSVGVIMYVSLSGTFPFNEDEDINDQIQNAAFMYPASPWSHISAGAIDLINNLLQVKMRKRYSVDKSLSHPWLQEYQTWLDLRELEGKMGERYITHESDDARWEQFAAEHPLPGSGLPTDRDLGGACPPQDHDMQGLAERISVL
The gist of the method: as §1

The target of another test is T5, PLK2 (Homo sapiens, UniProt Q9NYY3).
T5 construct: purchased Reaction Biology Corp
In short, it runs like this:
as §1

A further test addresses T6, SIK1 (Homo sapiens, UniProt P57059).
T6 construct: purchased Reaction Biology Corp
In short, it runs like this:
as §1

Setting [1] is: read-out: % Enzyme Activity (relative to DMSO controls) AVG.
[2] abbreviates: read-out: % Enzyme Activity (relative to DMSO controls) Data 1.
The mark [3] stands for this setting: read-out: % Enzyme Activity (relative to DMSO controls) Data 2.

One molecule from PMC4979471 (Cell Death Discovery, 2015) can be followed below.

Where two headings read alike, the source gives them in different places.

T6 sequence (P57059 whole entry): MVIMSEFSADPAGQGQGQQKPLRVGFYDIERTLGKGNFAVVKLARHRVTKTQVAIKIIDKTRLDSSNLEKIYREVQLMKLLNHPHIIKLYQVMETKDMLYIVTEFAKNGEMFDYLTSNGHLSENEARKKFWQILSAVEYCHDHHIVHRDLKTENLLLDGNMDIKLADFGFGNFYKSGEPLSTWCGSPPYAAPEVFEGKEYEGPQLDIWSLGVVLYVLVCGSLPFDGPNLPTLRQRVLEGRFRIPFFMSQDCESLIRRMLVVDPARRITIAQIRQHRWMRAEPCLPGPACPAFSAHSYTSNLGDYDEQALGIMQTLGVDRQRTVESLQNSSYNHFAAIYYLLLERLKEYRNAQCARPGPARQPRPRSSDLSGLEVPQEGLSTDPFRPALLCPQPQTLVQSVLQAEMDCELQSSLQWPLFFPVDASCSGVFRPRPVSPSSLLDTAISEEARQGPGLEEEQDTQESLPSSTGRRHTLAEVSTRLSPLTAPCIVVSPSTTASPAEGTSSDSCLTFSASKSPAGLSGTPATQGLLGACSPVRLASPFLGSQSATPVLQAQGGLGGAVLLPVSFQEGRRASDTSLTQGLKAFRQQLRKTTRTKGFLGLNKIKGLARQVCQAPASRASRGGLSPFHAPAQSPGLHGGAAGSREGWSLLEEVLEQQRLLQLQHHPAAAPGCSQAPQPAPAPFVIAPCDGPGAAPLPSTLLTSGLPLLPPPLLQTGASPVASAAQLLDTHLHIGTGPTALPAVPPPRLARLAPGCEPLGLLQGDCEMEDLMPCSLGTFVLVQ
T5 sequence (Q9NYY3 whole entry): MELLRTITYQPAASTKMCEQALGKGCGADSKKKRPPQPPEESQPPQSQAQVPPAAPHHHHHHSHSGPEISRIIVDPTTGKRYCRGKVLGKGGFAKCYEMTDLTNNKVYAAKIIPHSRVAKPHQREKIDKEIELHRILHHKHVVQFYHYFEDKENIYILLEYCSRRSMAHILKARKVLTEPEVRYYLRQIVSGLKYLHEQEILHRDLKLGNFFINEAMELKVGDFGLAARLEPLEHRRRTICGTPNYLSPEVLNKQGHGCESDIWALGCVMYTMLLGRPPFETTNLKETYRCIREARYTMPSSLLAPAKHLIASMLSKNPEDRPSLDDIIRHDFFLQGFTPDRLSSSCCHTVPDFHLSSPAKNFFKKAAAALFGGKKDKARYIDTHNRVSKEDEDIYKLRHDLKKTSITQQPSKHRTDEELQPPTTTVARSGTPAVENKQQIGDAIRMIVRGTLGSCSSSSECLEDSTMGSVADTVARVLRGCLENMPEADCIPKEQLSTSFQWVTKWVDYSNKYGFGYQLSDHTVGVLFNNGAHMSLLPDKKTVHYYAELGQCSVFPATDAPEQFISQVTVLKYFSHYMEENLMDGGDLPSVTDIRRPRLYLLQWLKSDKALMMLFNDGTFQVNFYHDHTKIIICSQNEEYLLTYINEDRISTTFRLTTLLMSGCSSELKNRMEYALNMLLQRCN
T1 sequence (Q9UM73 19-1620): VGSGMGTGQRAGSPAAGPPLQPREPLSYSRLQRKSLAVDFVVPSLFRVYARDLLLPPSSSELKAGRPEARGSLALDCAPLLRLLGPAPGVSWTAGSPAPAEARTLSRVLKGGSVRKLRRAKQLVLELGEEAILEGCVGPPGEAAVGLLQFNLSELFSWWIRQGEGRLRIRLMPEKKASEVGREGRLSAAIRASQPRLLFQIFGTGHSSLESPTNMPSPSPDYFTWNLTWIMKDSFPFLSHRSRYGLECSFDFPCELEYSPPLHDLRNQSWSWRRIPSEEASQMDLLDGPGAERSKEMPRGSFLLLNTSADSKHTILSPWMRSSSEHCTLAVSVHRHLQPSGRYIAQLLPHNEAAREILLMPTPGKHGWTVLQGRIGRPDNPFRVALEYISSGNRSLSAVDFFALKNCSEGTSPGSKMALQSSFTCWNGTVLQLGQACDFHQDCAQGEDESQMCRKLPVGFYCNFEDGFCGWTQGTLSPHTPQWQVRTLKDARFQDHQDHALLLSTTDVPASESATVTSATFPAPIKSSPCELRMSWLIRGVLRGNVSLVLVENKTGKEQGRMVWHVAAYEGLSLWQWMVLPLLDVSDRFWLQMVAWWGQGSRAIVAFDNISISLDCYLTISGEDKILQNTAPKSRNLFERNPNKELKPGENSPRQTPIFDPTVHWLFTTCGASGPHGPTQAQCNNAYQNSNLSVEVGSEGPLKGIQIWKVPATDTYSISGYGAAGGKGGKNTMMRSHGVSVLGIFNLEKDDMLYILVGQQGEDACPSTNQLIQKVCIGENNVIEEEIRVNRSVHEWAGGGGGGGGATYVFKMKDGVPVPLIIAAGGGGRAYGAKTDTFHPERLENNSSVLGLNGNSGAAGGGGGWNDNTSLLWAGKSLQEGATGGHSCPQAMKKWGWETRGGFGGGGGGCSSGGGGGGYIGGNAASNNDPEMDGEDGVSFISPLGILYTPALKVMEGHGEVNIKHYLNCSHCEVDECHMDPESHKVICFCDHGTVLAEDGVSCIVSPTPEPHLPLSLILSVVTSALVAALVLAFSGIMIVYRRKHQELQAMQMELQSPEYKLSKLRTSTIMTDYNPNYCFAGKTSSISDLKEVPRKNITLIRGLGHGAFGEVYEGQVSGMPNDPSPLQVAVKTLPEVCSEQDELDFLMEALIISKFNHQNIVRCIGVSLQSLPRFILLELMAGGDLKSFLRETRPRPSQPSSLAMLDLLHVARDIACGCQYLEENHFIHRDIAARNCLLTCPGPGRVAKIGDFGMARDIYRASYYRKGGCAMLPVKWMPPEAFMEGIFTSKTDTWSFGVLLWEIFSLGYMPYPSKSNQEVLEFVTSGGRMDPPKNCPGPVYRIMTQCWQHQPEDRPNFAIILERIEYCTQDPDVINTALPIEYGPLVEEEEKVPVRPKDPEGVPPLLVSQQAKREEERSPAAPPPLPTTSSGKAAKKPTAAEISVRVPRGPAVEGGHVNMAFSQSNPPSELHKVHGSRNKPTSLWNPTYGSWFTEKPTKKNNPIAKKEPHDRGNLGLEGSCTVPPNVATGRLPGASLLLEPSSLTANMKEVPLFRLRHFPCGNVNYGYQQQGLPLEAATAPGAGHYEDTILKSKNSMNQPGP
T3 sequence (Q9BUB5 whole entry): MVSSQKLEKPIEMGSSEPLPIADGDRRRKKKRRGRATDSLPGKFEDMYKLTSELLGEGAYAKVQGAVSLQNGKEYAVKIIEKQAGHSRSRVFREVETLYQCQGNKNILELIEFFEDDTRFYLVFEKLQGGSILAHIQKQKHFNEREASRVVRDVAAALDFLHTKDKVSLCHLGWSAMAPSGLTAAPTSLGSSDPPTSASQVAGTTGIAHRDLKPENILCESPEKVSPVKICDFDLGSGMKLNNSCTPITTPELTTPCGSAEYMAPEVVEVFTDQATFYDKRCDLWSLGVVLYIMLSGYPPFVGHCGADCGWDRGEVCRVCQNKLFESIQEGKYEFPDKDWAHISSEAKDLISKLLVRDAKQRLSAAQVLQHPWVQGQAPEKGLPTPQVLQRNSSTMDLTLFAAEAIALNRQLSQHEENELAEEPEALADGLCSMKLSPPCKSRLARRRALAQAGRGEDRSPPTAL

In the case of `CC(C)(C)C(=O)N1N=CC[C@H]1c1ccccc1` [GSK′963], the remaining activity at 10 µM on ALK (setting [1]) was 101%; on ALK (setting [2]), 97.3%; at ALK (setting [3]), 105%; on EPHA8 (setting [1]), 96.6%; at EPHA8 (setting [2]) it was 97.5%; at EPHA8 (setting [3]) it was 95.7%. The remaining activity at 10 µM amounted to 117% at MNK1 (setting [1]); 111% on MNK1 (setting [2]); 122% on MNK1 (setting [3]); 102% on PKD2/PRKD2 (setting [1]); 101% on PKD2/PRKD2 (setting [2]); 104% at PKD2/PRKD2 (setting [3]). Further, the remaining activity at 10 µM at PLK2 (setting [1]) worked out at 110%; on PLK2 (setting [2]) it was 108%; on PLK2 (setting [3]), 111%; on SIK1 (setting [1]) it was 113%; on SIK1 (setting [2]), 113%; on SIK1 (setting [3]), 113%.
